Where two headings read alike, the source gives them in different places. Marks after values point to notes of the source that are not given here.
System: DispersinB
Format: biochemical, Aggregatibacter actinomycetemcomitans
Conditions: for % enzymatic activity of DispersinB (Mean): polyol % as in label
Procedure: Samples from each formula was incubated at 3 different temperatures (42° C., 52° C. and 62° C.) for 3 hours. Following a 3 hour incubation, the samples were brought to room temperature for enzymatic activity assay.
Two-tailed paired T-test was performed by to compare each polyol containing treatment with the treatment devoid of polyol. Treatment with probability values (p) less than 5% (0.05) was considered significant.

Question: With `OC[C@@H](O)[C@@H](O)[C@H](O)[C@@H](O)CO` [sorbitol, (2S,3R,4R,5R)-Hexane-1,2,3,4,5,6-hexol] as the compound, how does the “% enzymatic activity of DispersinB (Mean)” value (shortened to “% enzymatic activity”) (4° C., freshly made control without polyol = 100%, listed as Sorbitol 1%) read?
Answer: 112* %

Question: What about the “% enzymatic activity” value (4° C., freshly made control without polyol = 100%, listed as Sorbitol 2.5%) of the same compound?
Answer: 107* %

Question: And the “% enzymatic activity” value (4° C., freshly made control without polyol = 100%, listed as Sorbitol 5%)?
Answer: 105* %

Question: And the “% enzymatic activity” value (4° C., freshly made control without polyol = 100%, listed as Sorbitol 10%)?
Answer: 107* %

Question: What about the “% enzymatic activity” value (4° C., freshly made control without polyol = 100%, listed as Sorbitol 20%) of the same compound?
Answer: 110* %

Question: And the “% enzymatic activity” value (4° C., freshly made control without polyol = 100%, listed as Sorbitol 30%)?
Answer: 113* %

Question: What about the “% enzymatic activity” value (42° C. for 3 hours, control without polyol = 100%, listed as Sorbitol 1%) of the same compound?
Answer: 80%

Question: What about the “% enzymatic activity” value (42° C. for 3 hours, control without polyol = 100%, listed as Sorbitol 2.5%) of the same compound?
Answer: 87%

Question: And the “% enzymatic activity” value (42° C. for 3 hours, control without polyol = 100%, listed as Sorbitol 5%)?
Answer: 89* %

Question: What about the “% enzymatic activity” value (42° C. for 3 hours, control without polyol = 100%, listed as Sorbitol 10%) of the same compound?
Answer: 88* %

Question: What about the “% enzymatic activity” value (42° C. for 3 hours, control without polyol = 100%, listed as Sorbitol 20%) of the same compound?
Answer: 88* %

Question: What about the “% enzymatic activity” value (42° C. for 3 hours, control without polyol = 100%, listed as Sorbitol 30%) of the same compound?
Answer: 101* %

Question: And the “temperature stabilizing effect on DispersinB at elevated temperatures” value (42° C., 52° C., and 62° C.)?
Answer: exhibited temperature stabilizing effect

Question: And the “% enzymatic activity” value (52° C. for 3 hours, control without polyol = 100%, listed as Sorbitol 1%)?
Answer: 6* %

Question: And the “% enzymatic activity” value (52° C. for 3 hours, control without polyol = 100%, listed as Sorbitol 2.5%)?
Answer: 21* %

Question: What about the “% enzymatic activity” value (52° C. for 3 hours, control without polyol = 100%, listed as Sorbitol 5%) of the same compound?
Answer: 46* %

Question: What about the “% enzymatic activity” value (52° C. for 3 hours, control without polyol = 100%, listed as Sorbitol 10%) of the same compound?
Answer: 82* %

Question: What about the “% enzymatic activity” value (52° C. for 3 hours, control without polyol = 100%, listed as Sorbitol 20%) of the same compound?
Answer: 94* %

Question: And the “% enzymatic activity” value (52° C. for 3 hours, control without polyol = 100%, listed as Sorbitol 30%)?
Answer: 97* %

Question: And the “% enzymatic activity” value (62° C. for 3 hours, control without polyol = 100%, listed as Sorbitol 5%)?
Answer: 1* %

Question: What about the “% enzymatic activity” value (62° C. for 3 hours, control without polyol = 100%, listed as Sorbitol 10%) of the same compound?
Answer: 3* %

Question: What about the “% enzymatic activity” value (62° C. for 3 hours, control without polyol = 100%, listed as Sorbitol 20%) of the same compound?
Answer: 4* %

Question: And the “% enzymatic activity” value (62° C. for 3 hours, control without polyol = 100%, listed as Sorbitol 30%)?
Answer: 46* %
